Source: ChEMBL document CHEMBL5356988, “Diversely functionalized isoquinolines and their core-embedded heterocyclic frameworks: a privileged scaffold for medicinal chemistry” (RSC Med Chem, 2023)

Legend:
HGC-27 = experiment: Antiproliferative activity against human HGC-27 cells assessed as reduction in cell viability by CCK-8 assay; format: functional, cell-based
Interleukin-5 = biological target: T1, Interleukin-5 (Homo sapiens, UniProt P05113); experiment: Inhibition of IL-5 (unknown origin)
T1 sequence (P05113 whole entry): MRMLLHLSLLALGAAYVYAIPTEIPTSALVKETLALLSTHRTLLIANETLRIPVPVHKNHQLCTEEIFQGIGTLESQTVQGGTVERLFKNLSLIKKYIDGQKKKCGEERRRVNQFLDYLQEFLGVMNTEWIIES

Fc1ccc(/C=C/c2nccc3ccccc23)c(F)c1
IC50 (HGC-27): 40 nM

Fc1ccc(/C=C/c2nccc3ccccc23)cc1F
IC50 (HGC-27): 80 nM

C=C1Oc2c(ccc3cc(C)ncc23)C1=O
IC50 (Interleukin-5): 2000 nM
